Test results reported in ChEMBL document CHEMBL5465560, “Selectivity Literature for EUbOPEN Chemogenomic Library” (2024).

Tests used:
[1] = molecular target: Serine/threonine-protein kinase SBK1 (Homo sapiens) (UniProt Q52WX2); conditions: at 10 µM
[2] = molecular target: T1, Interleukin-1 receptor-associated kinase 4 (Homo sapiens) (UniProt Q9NWZ3); test: Selectivity interaction (Kinase panel (literature)) EUB0001199aCl IRAK4; conditions: at 1 µM
T1 sequence (whole entry): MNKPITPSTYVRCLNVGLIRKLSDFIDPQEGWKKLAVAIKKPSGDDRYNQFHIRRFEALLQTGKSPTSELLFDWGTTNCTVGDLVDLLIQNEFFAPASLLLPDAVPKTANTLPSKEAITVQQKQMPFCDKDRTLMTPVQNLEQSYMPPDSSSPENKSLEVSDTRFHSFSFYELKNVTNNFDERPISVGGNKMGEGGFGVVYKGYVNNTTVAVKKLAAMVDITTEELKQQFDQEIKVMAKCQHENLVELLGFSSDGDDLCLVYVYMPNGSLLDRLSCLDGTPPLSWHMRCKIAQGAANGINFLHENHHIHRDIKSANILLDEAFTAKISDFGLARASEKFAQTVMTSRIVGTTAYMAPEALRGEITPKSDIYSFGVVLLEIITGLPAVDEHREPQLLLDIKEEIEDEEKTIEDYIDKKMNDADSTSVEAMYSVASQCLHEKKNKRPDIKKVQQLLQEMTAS

[3] = molecular target: Epidermal growth factor receptor (Homo sapiens, UniProt P00533); test: (§1) Selectivity interaction (SelectScreen profiling (Invitrogen)) EUB0000607a EGFR; conditions: at 2 µM
[4] = system: Epidermal growth factor receptor (Homo sapiens), P00533 [T790M]; test: as §1; conditions: at 2 µM
[5] = system: Epidermal growth factor receptor (Homo sapiens), P00533 [L858R]; test: as §1; conditions: at 2 µM
[6] = system: Epidermal growth factor receptor (Homo sapiens), P00533 [L861Q]; test: as §1; conditions: at 2 µM
[7] = molecular target: Protein-tyrosine kinase 2-beta (Homo sapiens) (UniProt Q14289); test: Selectivity interaction (Kinase panel (Invitrogen)) EUB0000639a PTK2B; conditions: at 200 nM
[8] = molecular target: Tyrosine-protein kinase JAK1 (Homo sapiens, UniProt P23458); test: Selectivity interaction (ActivX KiNativ screen (kinase selectivity in THP-1 cell lysates)) EUB0000639a JAK1; type: subcellular; conditions: lysate
[9] = molecular target: T2, Serine/threonine-protein kinase Nek1 (Homo sapiens) (UniProt Q96PY6); conditions: at 10 µM
T2 sequence (whole entry): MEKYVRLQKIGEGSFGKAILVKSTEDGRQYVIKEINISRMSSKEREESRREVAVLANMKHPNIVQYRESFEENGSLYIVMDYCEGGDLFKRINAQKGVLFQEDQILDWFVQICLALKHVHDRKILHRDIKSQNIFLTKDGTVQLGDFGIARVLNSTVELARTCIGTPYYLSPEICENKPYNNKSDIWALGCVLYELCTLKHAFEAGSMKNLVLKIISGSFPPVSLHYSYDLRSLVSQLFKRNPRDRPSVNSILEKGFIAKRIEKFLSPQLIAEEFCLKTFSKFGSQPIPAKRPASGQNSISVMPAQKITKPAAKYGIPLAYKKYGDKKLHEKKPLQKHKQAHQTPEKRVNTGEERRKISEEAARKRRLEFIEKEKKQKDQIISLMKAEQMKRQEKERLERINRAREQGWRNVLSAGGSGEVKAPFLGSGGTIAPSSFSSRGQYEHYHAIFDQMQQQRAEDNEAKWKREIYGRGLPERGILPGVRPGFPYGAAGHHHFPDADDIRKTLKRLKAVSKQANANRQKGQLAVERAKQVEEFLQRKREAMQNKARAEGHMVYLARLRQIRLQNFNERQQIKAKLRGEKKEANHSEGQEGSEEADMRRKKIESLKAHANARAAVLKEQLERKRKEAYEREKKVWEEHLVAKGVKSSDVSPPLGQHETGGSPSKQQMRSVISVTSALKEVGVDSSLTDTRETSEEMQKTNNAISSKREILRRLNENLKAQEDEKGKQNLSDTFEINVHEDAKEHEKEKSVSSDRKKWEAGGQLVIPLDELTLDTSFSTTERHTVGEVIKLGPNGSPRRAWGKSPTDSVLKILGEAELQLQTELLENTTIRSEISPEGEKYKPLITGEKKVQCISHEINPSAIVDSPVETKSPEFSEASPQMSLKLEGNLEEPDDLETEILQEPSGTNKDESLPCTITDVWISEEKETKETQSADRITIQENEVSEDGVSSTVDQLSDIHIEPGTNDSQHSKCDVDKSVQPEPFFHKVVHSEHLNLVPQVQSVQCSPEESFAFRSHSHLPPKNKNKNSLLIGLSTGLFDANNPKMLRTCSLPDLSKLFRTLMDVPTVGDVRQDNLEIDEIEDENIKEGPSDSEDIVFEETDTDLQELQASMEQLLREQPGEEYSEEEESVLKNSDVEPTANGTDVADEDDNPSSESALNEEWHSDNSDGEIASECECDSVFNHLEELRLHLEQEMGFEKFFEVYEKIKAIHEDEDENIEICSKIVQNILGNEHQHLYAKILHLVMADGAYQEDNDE

Chain of Tyrosine-protein kinase JAK1 (P23458 whole entry): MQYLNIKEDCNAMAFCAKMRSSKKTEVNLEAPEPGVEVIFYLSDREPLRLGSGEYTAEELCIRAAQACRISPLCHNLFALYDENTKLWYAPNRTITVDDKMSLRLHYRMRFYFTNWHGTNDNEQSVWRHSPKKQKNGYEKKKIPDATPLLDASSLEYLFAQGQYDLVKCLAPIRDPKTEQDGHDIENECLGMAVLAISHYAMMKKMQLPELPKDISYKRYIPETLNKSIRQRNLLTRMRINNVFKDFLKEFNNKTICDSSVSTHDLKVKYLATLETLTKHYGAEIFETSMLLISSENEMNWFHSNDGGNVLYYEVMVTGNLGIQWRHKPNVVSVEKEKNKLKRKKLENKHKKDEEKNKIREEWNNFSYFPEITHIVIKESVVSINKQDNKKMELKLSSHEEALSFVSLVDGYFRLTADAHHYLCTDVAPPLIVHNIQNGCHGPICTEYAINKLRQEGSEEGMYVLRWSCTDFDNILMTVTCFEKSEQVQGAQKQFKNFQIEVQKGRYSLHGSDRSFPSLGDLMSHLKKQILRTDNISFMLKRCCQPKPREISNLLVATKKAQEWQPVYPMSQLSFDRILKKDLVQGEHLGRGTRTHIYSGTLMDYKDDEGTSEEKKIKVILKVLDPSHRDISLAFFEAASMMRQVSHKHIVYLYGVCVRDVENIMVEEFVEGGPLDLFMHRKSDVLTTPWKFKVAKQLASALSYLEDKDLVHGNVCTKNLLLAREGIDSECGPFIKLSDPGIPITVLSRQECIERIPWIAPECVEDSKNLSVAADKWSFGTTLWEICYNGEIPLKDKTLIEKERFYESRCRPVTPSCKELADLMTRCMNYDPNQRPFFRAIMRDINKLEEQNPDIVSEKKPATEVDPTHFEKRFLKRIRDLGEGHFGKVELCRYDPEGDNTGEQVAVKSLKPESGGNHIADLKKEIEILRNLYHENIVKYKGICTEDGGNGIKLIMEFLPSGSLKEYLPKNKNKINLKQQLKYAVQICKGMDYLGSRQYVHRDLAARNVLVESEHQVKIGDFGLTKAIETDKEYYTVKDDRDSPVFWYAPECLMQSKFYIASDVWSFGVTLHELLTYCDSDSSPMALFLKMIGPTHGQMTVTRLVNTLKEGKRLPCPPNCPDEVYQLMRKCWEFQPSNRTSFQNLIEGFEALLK
Chain of Serine/threonine-protein kinase SBK1 (Homo sapiens) (Q52WX2 whole entry): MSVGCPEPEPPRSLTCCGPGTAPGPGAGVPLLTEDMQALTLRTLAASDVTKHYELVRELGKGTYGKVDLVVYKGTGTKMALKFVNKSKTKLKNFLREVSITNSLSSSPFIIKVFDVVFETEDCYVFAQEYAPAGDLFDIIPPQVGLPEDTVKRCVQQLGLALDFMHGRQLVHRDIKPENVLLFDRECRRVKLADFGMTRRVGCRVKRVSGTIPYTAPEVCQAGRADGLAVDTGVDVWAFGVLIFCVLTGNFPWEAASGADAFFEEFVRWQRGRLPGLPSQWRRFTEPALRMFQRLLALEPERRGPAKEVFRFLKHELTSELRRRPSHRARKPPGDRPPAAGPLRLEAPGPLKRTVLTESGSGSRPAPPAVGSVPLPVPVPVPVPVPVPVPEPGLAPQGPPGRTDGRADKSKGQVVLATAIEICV
Chain of Epidermal growth factor receptor (Homo sapiens), P00533 [T790M] (P00533 whole entry T790M): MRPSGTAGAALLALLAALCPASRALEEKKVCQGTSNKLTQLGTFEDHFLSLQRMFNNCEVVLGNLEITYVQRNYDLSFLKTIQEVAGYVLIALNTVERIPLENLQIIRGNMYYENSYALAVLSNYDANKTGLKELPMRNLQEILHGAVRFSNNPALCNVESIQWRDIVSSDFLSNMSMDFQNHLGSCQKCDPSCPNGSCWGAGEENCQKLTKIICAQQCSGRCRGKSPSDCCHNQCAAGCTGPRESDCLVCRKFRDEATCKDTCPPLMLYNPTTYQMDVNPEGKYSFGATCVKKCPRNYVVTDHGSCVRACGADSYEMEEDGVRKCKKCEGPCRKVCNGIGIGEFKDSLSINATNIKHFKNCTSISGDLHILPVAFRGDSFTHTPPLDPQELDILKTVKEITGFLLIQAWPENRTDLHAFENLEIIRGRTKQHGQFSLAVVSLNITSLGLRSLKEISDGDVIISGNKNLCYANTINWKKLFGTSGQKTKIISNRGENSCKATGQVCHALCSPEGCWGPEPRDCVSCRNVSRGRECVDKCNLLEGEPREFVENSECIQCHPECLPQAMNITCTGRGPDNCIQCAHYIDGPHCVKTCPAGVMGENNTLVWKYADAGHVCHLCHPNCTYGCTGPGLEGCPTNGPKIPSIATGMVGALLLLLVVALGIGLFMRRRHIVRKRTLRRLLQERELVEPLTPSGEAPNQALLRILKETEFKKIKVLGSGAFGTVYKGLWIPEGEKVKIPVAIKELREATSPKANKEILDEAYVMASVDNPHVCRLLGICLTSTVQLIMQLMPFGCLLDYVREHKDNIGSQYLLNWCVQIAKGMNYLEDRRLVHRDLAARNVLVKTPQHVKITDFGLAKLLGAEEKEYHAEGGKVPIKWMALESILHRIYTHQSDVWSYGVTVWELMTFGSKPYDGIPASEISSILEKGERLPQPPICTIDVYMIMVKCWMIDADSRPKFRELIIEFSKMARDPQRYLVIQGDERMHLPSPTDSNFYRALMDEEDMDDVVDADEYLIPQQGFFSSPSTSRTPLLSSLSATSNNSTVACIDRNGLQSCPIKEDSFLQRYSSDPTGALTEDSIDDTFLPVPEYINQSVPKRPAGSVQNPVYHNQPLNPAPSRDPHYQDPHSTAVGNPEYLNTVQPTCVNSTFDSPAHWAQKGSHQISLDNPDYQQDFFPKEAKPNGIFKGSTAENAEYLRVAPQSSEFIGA
Chain of Epidermal growth factor receptor (P00533 whole entry): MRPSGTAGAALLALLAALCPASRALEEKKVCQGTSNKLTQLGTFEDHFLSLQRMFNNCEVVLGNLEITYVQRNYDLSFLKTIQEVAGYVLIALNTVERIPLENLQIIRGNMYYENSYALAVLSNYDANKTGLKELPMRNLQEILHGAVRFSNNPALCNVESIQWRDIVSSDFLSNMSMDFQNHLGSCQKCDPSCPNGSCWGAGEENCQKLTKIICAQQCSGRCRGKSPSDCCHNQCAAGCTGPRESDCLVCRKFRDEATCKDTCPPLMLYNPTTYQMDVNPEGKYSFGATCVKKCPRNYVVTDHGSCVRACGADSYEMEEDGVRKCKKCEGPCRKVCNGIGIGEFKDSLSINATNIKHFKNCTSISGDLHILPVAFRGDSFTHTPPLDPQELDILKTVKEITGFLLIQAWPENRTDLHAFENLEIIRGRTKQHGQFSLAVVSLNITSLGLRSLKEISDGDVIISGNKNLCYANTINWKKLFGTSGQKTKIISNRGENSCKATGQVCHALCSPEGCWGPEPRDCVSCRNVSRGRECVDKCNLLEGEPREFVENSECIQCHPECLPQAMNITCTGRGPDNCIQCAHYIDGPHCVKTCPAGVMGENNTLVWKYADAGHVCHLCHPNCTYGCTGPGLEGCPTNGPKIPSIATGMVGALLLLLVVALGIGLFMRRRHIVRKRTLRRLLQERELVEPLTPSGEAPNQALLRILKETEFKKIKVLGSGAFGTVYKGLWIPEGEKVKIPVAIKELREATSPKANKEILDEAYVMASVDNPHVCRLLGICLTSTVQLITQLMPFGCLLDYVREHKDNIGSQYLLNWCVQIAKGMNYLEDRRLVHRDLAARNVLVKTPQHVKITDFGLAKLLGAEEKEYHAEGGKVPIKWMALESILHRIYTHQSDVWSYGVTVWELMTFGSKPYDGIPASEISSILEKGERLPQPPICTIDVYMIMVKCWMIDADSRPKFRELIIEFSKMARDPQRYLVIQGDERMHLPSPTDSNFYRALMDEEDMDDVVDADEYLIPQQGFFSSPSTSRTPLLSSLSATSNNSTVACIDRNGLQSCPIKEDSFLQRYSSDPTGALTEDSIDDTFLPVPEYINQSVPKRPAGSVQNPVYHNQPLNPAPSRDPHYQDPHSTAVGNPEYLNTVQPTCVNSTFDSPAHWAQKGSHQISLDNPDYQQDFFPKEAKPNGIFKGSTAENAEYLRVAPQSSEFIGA
Chain of Protein-tyrosine kinase 2-beta (Homo sapiens) (Q14289 whole entry, looked up): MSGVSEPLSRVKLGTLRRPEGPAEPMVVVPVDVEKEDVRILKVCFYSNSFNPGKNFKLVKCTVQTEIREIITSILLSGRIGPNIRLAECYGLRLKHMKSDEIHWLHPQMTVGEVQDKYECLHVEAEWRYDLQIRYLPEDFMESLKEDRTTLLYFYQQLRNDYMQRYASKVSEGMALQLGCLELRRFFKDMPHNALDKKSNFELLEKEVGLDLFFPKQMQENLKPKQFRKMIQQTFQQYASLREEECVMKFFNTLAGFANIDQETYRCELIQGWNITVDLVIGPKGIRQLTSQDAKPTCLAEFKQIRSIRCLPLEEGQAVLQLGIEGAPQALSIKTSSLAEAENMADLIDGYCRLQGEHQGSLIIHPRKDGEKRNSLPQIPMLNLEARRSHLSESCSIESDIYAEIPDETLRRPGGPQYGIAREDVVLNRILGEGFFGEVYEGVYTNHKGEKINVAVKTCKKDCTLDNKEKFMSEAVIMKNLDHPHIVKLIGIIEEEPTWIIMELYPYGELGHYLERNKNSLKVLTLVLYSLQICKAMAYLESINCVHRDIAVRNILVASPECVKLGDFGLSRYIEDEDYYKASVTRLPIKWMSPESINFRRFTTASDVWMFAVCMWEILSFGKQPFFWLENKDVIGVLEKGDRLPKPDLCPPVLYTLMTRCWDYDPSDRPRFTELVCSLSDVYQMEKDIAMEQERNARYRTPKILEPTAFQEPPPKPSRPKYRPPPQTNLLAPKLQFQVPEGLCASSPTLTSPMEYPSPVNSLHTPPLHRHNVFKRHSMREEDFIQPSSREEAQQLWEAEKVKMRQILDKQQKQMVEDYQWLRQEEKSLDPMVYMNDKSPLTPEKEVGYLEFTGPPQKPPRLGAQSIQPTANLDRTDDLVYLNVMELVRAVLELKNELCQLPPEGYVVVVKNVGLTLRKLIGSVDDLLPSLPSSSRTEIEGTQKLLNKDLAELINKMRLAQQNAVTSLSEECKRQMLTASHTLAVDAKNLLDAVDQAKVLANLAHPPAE

Compound: Cc1cc([C@@H](C)Nc2ccccc2C(=O)O)c2nc(N3CCOCC3)cc(=O)n2c1 [AZD-6482]
- % of control [1]: 100%

Compound: CN1Cc2nccc(-c3cn(C)nc3-c3ccc(F)cc3)c2C1=O
- % of inhibition [2]: -8%

Compound: CNC(=O)Nc1ccc(-c2nc(N3CC4CCC(C3)O4)c3cnn(C4CCC5(CC4)OCCO5)c3n2)cc1
- % of inhibition [3]: 1%
- % of inhibition [4]: 2%
- % of inhibition [5]: 3%
- % of inhibition [6]: -1%

Compound: CC[C@@H]1[C@H](F)C(=O)N[C@@H]1COc1nccc2cc(C(N)=O)c(OC)cc12 [ZIMLOVISERTIB]
- % of inhibition [7]: -0.0574%
- % of inhibition ([8]; at 0.01 µM): 18%
- % of inhibition ([8]; at 0.04 µM): 15.6%
- % of inhibition ([8]; at 0.2 µM): 11.9%
- % of inhibition ([8]; at 1 µM): 9%
- % of inhibition ([8]; at 5 µM): -24.4%

Compound: CCN(CC)CCCCNc1ncc2cc(-c3cc(OC)cc(OC)c3)c(NC(=O)NC(C)(C)C)nc2n1
- % of control [9]: 100%
